The subject of one experiment is CFTR. Description: Confocal immunofluorescence of CFTR in rat intestine. It is filed as in vivo. The conditions noted are these: linaclotide 5 μg, 30 min. The procedure:
All animal studies were approved by the Institutional Animal Care and Use Committee of Yale University School of Medicine. Briefly, male Sprague–Dawley rats (200–250 g, Charles River Laboratories) were fasted overnight with access to drinking water ad libitum. Anesthesia was performed with Inactin® (Thiobutabarbital sodium salt hydrate, 120 mg/kg/i.p.). The jejunal, ileal, and proximal colonic loops (5 cm length) were prepared using sutures. Loops were instilled either with normal saline (pH7.4, 37°C) (1 mL/loop) or linaclotide (5 μg/mL/loop) for 30 min. At the end of the study, animals were euthanized with Inactin (200 mg/kg/i.p.).
After completion of treatment either with normal saline or linaclotide for 30 min, intestinal segments were immediately removed and briefly rinsed with ice‐cold PBS. Tissues were cut into ~2‐mm‐thick rings, fixed in 2% paraformaldehyde in PBS, pH 7.4 for 1 h at room temperature, rinsed with PBS and cryoprotected in 30% sucrose overnight. Multiple tissue samples were processed under identical conditions by the utilization of tissue arrays as previously described (Jakab et al. 2011). […] Immunolabeled sections were stored at 4°C and examined on Zeiss LSM 710 DUO laser scanning confocal microscope outfitted with a Mai‐Tai laser and electronics capable of spectrally separating fluorescence emission profiles. […]

For experiment [1] the following is noted: via extracellular cGMP; ref Castro et al. 2013; Silos‐Santiago et al. 2013; Hannig et al. 2014; cited from earlier work. From the text: (§1) While the increase in intracellular cGMP following ligand activation of GC‐C is well established, the efflux of cGMP from enterocytes is not well studied.
The subject of a further experiment is mouse colonic mucosa. The conditions noted are these: apical and basolateral membrane, ref Silos‐Santiago et al. 2013, Tchernychev et al. 2015; cited from earlier work.
Description: as §1

The next experiment deals with Caco‐2 cell line. The conditions noted are these: human colonic Caco‐2 cell line; ref Castro et al. 2013; Silos‐Santiago et al. 2013; cited from earlier work.
Description: as §1

Another experiment has as its system rat colonic mucosa. The conditions noted are these: apical and basolateral membrane, ref Silos‐Santiago et al. 2013, Tchernychev et al. 2015; cited from earlier work.
Description: as §1

Take linaclotide: the “CFTR localization in brush border (confocal)” value in the experiment on CFTR is recorded as “accumulation of CFTR in the brush border”. For the same substance, in experiment [1], the antinociceptive effect result is “antinociceptive effects in several models of colonic hypersensitivity”. The cGMP efflux entry with mouse colonic mucosa, with Caco‐2 cell line and in the experiment on rat colonic mucosa was “induce cGMP efflux” in each case.
